Measured values published in US20260265178A1, “TERTIARY AMINE DERIVATIVES AND THEIR USES FOR TREATING A VIRAL INFECTION” (ENYO PHARMA, priority 2022, published 2026).

System: Respiratory Syncytial Virus (RSV)
Assay: Cytopathic effect (CPE) assay, HEp-2 cells infected by RSV, CellTiter-Glo viability readout
Assay type: cell-based
Conditions: HEp-2 cells, RSV MOI 0.5, 3 days, CellTiter-Glo luminescence
Description: Cytopathic Effect (CPE) Assay Experimental Procedure:
• RSV titer: 6.9×10^6 pfu/ml • MOI=pfu used for infection/cell number • 1) HEp-2 cells were seeded in 384-well plates at 5000 cells per well in 25 μl assay medium and incubated for 24 h at 37° C. in 5% CO2. Cells were seeded in each well expect for the top row, which contains medium only (low control). • 2) Compounds were dispensed using the Echo550 Liquid Handler. All compounds were used at 10 mM stock concentration. The positive control Ribavirin was included as control compound in all assays. • 3) Cells were expected to double once over 24 h. • 4) The cells were infected the next day at RSV MOI 0.5, adding 5 μl virus diluted in assay medium. • 5) Non-infected cells were treated with 5 μl assay medium (high control) • 6) Plates were centrifuged at 400 rpm, 10 sec to allow the virus to sink onto the cells. • 7) Cells were incubated at 37° C. in 5% CO2 for 3 days. • 8) 10 μl CellTiter-Glo® (Promega) was added to all wells. • 9) The plate was incubated at RT for 30 min. • 10) Luminescence was measured on the Envision plate reader.

Row | SMILES | IC50
1 | NC(=O)c1cccc(CN(Cc2cccc(C(N)=O)c2)CC2CCN(C(N)=O)C2)c1 (stereo not drawn) [Compound #17] | Not calculable

Same assay, conditions: HEp-2 cells, RSV MOI 0.5, 3 days, CellTiter-Glo luminescence; read-out: IC50

Row | SMILES | IC50 [nM]
2 | COC[C@H](c1cccc(Br)c1)N(Cc1cccc(C(=O)OC)c1)Cc1cccc(C(=O)OC)c1 [Compound #4] | 7
3 | COC[C@H](c1cccc(C(=O)O)c1)N(Cc1cccc(C(=O)OC)c1)Cc1cccc(C(=O)OC)c1 [Compound #5] | 2000
4 | COC[C@H](c1cccc(C(=O)O)c1)N(Cc1cccc(C(=O)O)c1)Cc1cccc(C(=O)O)c1 [Compound #6] | 200
5 | COC(=O)c1cccc(CN(Cc2cccc(C(=O)OC)c2)[C@H](CO)c2cccc(Br)c2)c1 [Compound #3] | 3400

Same assay, conditions: compared with comparative and positive control compounds, FIGS. 1-23A

Row | SMILES | % viability of cells infected by RSV
6 | COC[C@H](c1cccc(C(N)=O)c1)N(Cc1cccc(C(N)=O)c1)Cc1cccc(C(N)=O)c1 [Compound #21, 3-[[[(1S)-1-(3-carbamoylphenyl)-2-methoxy-ethyl]-[(3-carbamoylphenyl)methyl]amino]methyl]benzamide] | higher % of viability

Same assay, conditions: compound #21 versus comparative compounds

Row | SMILES | IC50 times lower than IC50 of comparative compounds [times]
7 | COC[C@H](c1cccc(C(N)=O)c1)N(Cc1cccc(C(N)=O)c1)Cc1cccc(C(N)=O)c1 [Compound #21, 3-[[[(1S)-1-(3-carbamoylphenyl)-2-methoxy-ethyl]-[(3-carbamoylphenyl)methyl]amino]methyl]benzamide] | ≥ 7

Same assay, conditions: compound #21 versus compound #4

Row | SMILES | IC50 times lower than IC50 of the closest structural compound #4
8 | COC[C@H](c1cccc(C(N)=O)c1)N(Cc1cccc(C(N)=O)c1)Cc1cccc(C(N)=O)c1 [Compound #21, 3-[[[(1S)-1-(3-carbamoylphenyl)-2-methoxy-ethyl]-[(3-carbamoylphenyl)methyl]amino]methyl]benzamide] | around 50 times

Same assay, conditions: human respiratory syncytial virus, 72 h; HEp-2 cells, RSV MOI 0.5, 3 days, CellTiter-Glo luminescence; read-out: IC50

Row | SMILES | IC50 [nM]
9 | NC(=O)c1ncn([C@@H]2O[C@H](CO)[C@@H](O)[C@H]2O)n1 [Ribavirin] | 15000
10 | COc1ccc(CN(Cc2cccc(C(N)=O)c2)Cc2cccc(C(N)=O)c2)cc1C(N)=O [Compound #10] | 5
11 | COC[C@H](c1cccc(C(N)=O)c1)N(Cc1cccc(C(N)=O)c1)Cc1cccc(C(N)=O)c1 [Compound #21, 3-[[[(1S)-1-(3-carbamoylphenyl)-2-methoxy-ethyl]-[(3-carbamoylphenyl)methyl]amino]methyl]benzamide] | 0.15
12 | NC(=O)COCCN(Cc1cccc(C(N)=O)c1)Cc1cccc(C(N)=O)c1 [Compound #16] | 350
13 | COc1cc(CN(Cc2cccc(C(N)=O)c2)Cc2cccc(C(N)=O)c2)cc(C(N)=O)c1 [Compound #14] | 70
14 | NC(=O)c1cccc(CN(Cc2cccc(C(N)=O)c2)CC2CCCN(C(N)=O)C2)c1 (stereo not drawn) [Compound #18] | 8
15 | NC(=O)c1cccc(CN(Cc2cccc(C(N)=O)c2)C[C@H]2CCCN(C(N)=O)C2)c1 [Compound #11] | 4.5
16 | C[C@@H](c1cccc(C(N)=O)c1)N(Cc1cccc(C(N)=O)c1)Cc1cccc(C(N)=O)c1 [Compound #13] | 4.4
17 | CC(c1cccc(C(N)=O)c1)N(Cc1cccc(C(N)=O)c1)Cc1cccc(C(N)=O)c1 (stereo not drawn) [Compound #15] | 1.5
18 | NC(=O)c1cccc(CN(Cc2cccc(C(N)=O)c2)C[C@@H]2CCCN(C(N)=O)C2)c1 [Compound #8] | 100
19 | NC(=O)c1cccc(CN(Cc2cccc(C(N)=O)c2)CC2CCCNC2)c1 (stereo not drawn) [Compound #12] | 130
20 | Cc1cn2nc([C@@H]3CCCCN3C(=O)c3cc(Cl)ccc3NS(C)(=O)=O)cc2nc1N1CC[C@H](N)C1 [Presatovir] | 1.1
21 | NC(=O)c1cccc(CN(Cc2cccc(C(N)=O)c2)Cc2ccc3[nH]ncc3c2)c1 [Compound #7] | 3900
22 | NC(=O)c1cccc(CN(Cc2cccc(C(N)=O)c2)CC2(F)CCCN(C(N)=O)C2)c1 (stereo not drawn) [Compound #20] | 130
23 | CNC(=O)COCCN(Cc1cccc(C(N)=O)c1)Cc1cccc(C(N)=O)c1 [Compound #9] | 2000

System: recombinant HRSV expressing the firefly luciferase
Assay: In vivo anti-hRSV activity in a mouse model of infection (recombinant HRSV expressing firefly luciferase, bioluminescence)
Conditions: BALB/C mice, 1 mpk intranasally, 5 days post infection, versus mock-treated, p<0.05
Description: FIG. 24: In vivo evaluation of compound #21 anti-hRSV activity in a mouse model of infection. FIG. 24A: Bioluminescence was measured by intranasal injection of 50 μl of D-luciferin (200 mM) and capture of photon emission from the chest at 5 days post infection using the IVIS system. Dorsal and ventral views of mice representative of the results are shown. FIG. 24B: Comparative bioluminescence between compound #21 and mock-treated mice 5 days post infection. Each data point represents mean±s.e.m. Brown-Forsythe Test and Welch ANOVA followed by Dunnett's multiple comparison test; * p<0.05
An engineered recombinant HRSV expressing the firefly luciferase was used in a mouse model of infection described in Rameix-Welti et al., Nature Communications, 2014. BALB/C mice were infected with 50×10^4 p.f.u. of virus and treated intranasally by 1 mpk compound #21 or vehicle (10 mice/group). Bioluminescence was measured by intranasal injection of 50 μl of D-luciferin (200 mM) and capture of photon emission from the chest at 5 days post infection using the IVIS system.
Dorsal and ventral views of mice representative of the results are shown at FIG. 24A. Comparative bioluminescence between compound #21 and mock-treated mice 5 days post infection are shown at FIG. 24B. Each data point represents mean±s.e.m. Brown-Forsythe Test and Welch ANOVA followed by Dunnett's multiple comparison test; * p<0.05.

Row | SMILES | bioluminescent signal in the lung
24 | COC[C@H](c1cccc(C(N)=O)c1)N(Cc1cccc(C(N)=O)c1)Cc1cccc(C(N)=O)c1 [Compound #21, 3-[[[(1S)-1-(3-carbamoylphenyl)-2-methoxy-ethyl]-[(3-carbamoylphenyl)methyl]amino]methyl]benzamide] | significantly reduced
